According to PubChem BioAssay (NCI):
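These data come from cells grown in 96-well plates and exposed to compound for 48 hours at five concentrations. GI50 marks 50% less growth. TGI: concentration producing complete growth inhibition.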

Experiments:
Assay in all cases: inhibition of tumour cell growth, NCI panel, 48 h
SK-MEL-5 melanoma = tested on: SK-MEL-5 melanoma
SK-OV-3 ovarian = tested on: SK-OV-3 ovarian
NCI-H23 lung = tested on: NCI-H23 lung
TK-10 renal = tested on: TK-10 renal
SF-295 CNS = tested on: SF-295 CNS
EKVX NSCLC = tested on: EKVX NSCLC
SK-MEL-28 melanoma = tested on: SK-MEL-28 melanoma
786-0 renal = tested on: 786-0 renal
MOLT-4 leukemia = tested on: MOLT-4 leukemia
SNB-19 CNS = tested on: SNB-19 CNS

Row | SMILES | TGI (SK-MEL-5 melanoma) [µM] | TGI (SK-OV-3 ovarian) [µM] | TGI (NCI-H23 lung) [µM] | TGI (TK-10 renal) [µM] | TGI (SF-295 CNS) [µM] | TGI (EKVX NSCLC) [µM] | TGI (SK-MEL-28 melanoma) [µM] | TGI (786-0 renal) [µM] | TGI (MOLT-4 leukemia) [µM] | TGI (SNB-19 CNS) [µM] | GI50 (SK-MEL-5 melanoma) [µM] | GI50 (MOLT-4 leukemia) [µM] | GI50 (NCI-H23 lung) [µM] | GI50 (TK-10 renal) [nM] | GI50 (SNB-19 CNS) [µM] | GI50 (SF-295 CNS) [µM] | GI50 (EKVX NSCLC) [µM] | GI50 (SK-MEL-28 melanoma) [µM] | GI50 (786-0 renal) [nM] | GI50 (SK-OV-3 ovarian) [µM]
1 | COC(=O)C1=C(c2ccc(OC)c(OC)c2)OC(c2cc(OC)c(OC)c(OC)c2)C1 (stereo not given) | > 100 | 56.8 | > 100 | > 100 | > 100 | > 100 | > 100 | 74.4 |  |  |  |  |  |  |  |  |  |  |  | 
2 | CS(=O)(=O)NNS(=O)(=O)c1ccccc1 | > 100 |  | > 100 | > 100 | > 100 | > 100 |  | > 100 | > 100 | > 100 |  |  |  |  |  |  |  |  |  | 
3 | S=c1nc(COc2ccc(Cl)cc2Cl)[nH][nH]1 | > 100 |  | > 100 | > 100 | > 100 | > 100 | > 100 | > 100 | > 100 | > 100 |  |  |  |  |  |  |  |  |  | 
4 | O=[N+]([O-])c1ccc(Oc2nc(Nc3ccc(O[C@H]4CO[C@H]5[C@@H]4OC[C@@H]5O)c(Cl)c3)ncc2F)c(Cl)c1 | 2.59 |  | 3.22 | 4.07 | 2.92 | 9.43 | 4.78 | 4.24 | 4.82 | 9.81 | 1.29 | 1.27 | 1.3 | 1080 | 2.89 | 1.39 | 2.22 | 1.55 | 1300 | 
5 | CCN1C(=O)CCCc2c1ccc(Nc1ncc(Cl)c(NC3[C@@H](C(N)=O)[C@@H]4C=C[C@H]3C4)n1)c2OC (stereo not given in full) | 4.82 | 7.74 | 9.47 | 4.38 | 13.3 |  | 6.96 | 9.12 | 11.3 | 14 | 1.45 | 1.41 | 1.56 | 897 | 1.94 | 1.45 |  | 1.56 | 1870 | 2.39
6 | COC(=O)C(=CNC(N)=O)C(=O)OC | > 100 |  | > 100 | > 100 | > 100 | > 100 | > 100 | > 100 | > 100 | > 100 |  |  |  |  |  |  |  |  |  | 
7 | FC(F)(F)c1ccc(-c2cnc(-n3cc(COCCN4CCCCC4)nn3)nc2NC2CCCCCC2)cc1 | 6.74 | 7.62 | 7.81 | 7.81 | 9.85 |  | 6.99 | 7.28 | 9.26 | 7.11 | 3.46 | 3.73 | 3.8 | 4140 | 3.61 | 4.85 |  | 3.6 | 3730 | 4.04
8 | COc1cc(OC)c2nccc(NCCCN(C)C)c2c1[N+](=O)[O-] | > 100 | > 100 | > 100 | > 100 | > 100 |  | > 100 | > 100 | > 100 | > 100 |  |  |  |  |  |  |  |  |  | 
9 | COc1cccc(/C=N/NC(=S)NC2CC3CCC2C3)c1O (stereo not given) | 77.4 | 14.4 | 45.4 | 31.5 | 18 |  | 33.5 | 39.6 | 48.3 | 35.9 | 13.9 | 10.5 | 15.1 | 16400 | 14.6 | 4.63 |  | 13.1 | 19500 | 4.46
10 | O=[N+]([O-])c1ccc(-c2noc(-c3ccc(Cl)cc3)c2C2=NCCN2)cc1 | > 100 |  |  |  | > 100 | > 100 | > 100 | > 100 | > 100 | > 100 |  |  |  |  |  |  |  |  |  | 
11 | COc1ccc(S(=O)(=O)NC2=NCCN2C(=S)SN2CCn3c2nsc3=S)cc1 | 31.7 |  | 55.7 | 30.2 | 53.6 | 30.6 | 65.1 | 35.4 | > 100 | > 100 | 17.8 | 29.4 | 22.9 | 15900 | 32.9 | 20.8 | 15.8 | 21.1 | 20200 | 
12 | Oc1ccc(O)c(-c2cc(-c3ccc(Cl)cc3)nn2-c2ccccc2)c1 | 28.8 |  | 9.24 | 25.6 | 39.2 | 51.1 |  | 5.4 | > 100 |  | 10.1 | 3.3 | 2.48 | 6580 |  | 20 | 23.9 |  | 2210 | 
13 | Cc1cc(Nc2nc(-c3cccnc3)nc3ccccc23)n[nH]1 | > 63.6 | > 100 | > 100 | 99.1 | > 100 |  | > 100 | > 100 | > 100 | > 100 | 4 | > 57.2 | 5.16 | 607 | 5.98 | 2.72 |  | 10.1 | 1310 | 0.956
14 | CCN(Cc1ccc(F)cc1)c1ccc(CO)c(C)c1 | 22.8 | 41.5 | 37.1 | 4.2 | 32.8 |  | 28.6 | 29.5 | 58.8 | > 100 | 10.2 | 15.5 | 13.2 | 884 | 31.4 | 10.9 |  | 13.3 | 13000 | 8.91
